The source of these data is US10738074B2, “Cyclic di-nucleotide compounds as STING agonists” (Merck Sharp & Dohme Corp., priority 2015, dated 2020).

One assay concerns the target full-length WT STING (Homo sapiens (Human), UniProt Q86WV6, H232R). Description: 3H-cGAMP filtration binding assay (WT STING). As to conditions: competition with tritiated cGAMP, WT STING membrane. The source says:
The ability of compounds to bind STING is quantified by their ability to compete with tritiated cGAMP ligand for human STING receptor membrane using a radioactive filter-binding assay. The binding assay employs STING receptor obtained from Trichoplusia ni cell membranes (Tni; Expression Systems, cat #94-002F, www.expressionsystems.com) overexpressing full-length WT STING prepared in-house and tritiated cGAMP ligand also purified in-house.
The basic WT STING filtration assay protocol is as follows:
The filter plates were then dried at 55° C. for 30 min using a pressurized VWR oven before 30 uL of Ultima GoldF scintillate was added to each well. Tritium levels for each reaction well were then measured using a PerkinElmer TopCount plate reader.
(§1) After normalization to controls, the percent activity for each compound concentration was calculated by measuring the amount of remaining radioactivity. The plot of percent activity versus the log of compound concentration was fit with a 4-parameter dose response equation to calculate EC50 values.

The next assay concerns THP1 cells. Description: IFN-β secretion in THP1 cell culture (5 h). Format: cell-based, human. The following applies: IFN-β secretion, THP1 cells, 5 h, 30 μM; for activation at 30 µM: Homo sapiens, THP-1, 5 h, read-out: % Effect at 30 μM relative to 2′3′-cGAMP. As for the experimental part:
The ability of compounds to stimulate the secretion of interferon-beta from THP1 cells was measured using a human IFN-β AlphaLISA kit (Perkin Elmer, Cat. No. AL265F). The basic protocol is as follows:
A Labcyte Echo 550 acoustic dispenser was used to transfer 120 nL of compound dissolved in DMSO into the wells of an empty, sterile 384-well microplate, (Corning, Cat. No. 3712). THP1 cells (American Type Culture Collection, Cat. No. TIB202) previously frozen in Recovery Medium (Life Technologies, Cat. No. 12648-010) were thawed and immediately diluted 10-fold into 37° C. assay medium (RPMI 1640+L-Glutamine & phenol red, Life Technologies, Cat. No. 11875-085; 0.5% heat inactivated fetal bovine serum, Sigma Aldrich, Cat. No. F4135; 1 mM Sodium Pyruvate, Life Technologies, Cat. No. 11360-070; lx non-essential amino acids; Life Technologies, Cat. No. 11140-050). The cell viability and count was ascertained using a Beckman Coulter V-Cell XR cell counter. The cells suspension was centrifuged at 200×g for 5 min at RT. Cells were resuspended to a density of 0.8×10^6/mL in 37° C. assay medium. Subsequent liquid transfers were performed using either a Matrix electronic multichannel pipette or an Agilent Bravo Automated Liquid Handling Platform.
The assay was started by dispensing 40 μL of the previously prepared cell suspension into the wells of the plate containing compounds. After 5 h incubation at 37° C., 5% CO2 in a humidified atmosphere, the plate of cells and compounds was centrifuged at 200×g for 5 min at RT. From each well, 5 μL of supernatant was transferred into corresponding wells of a white 384-well plate (Perkin Elmer, Cat. No. 6005620). To these supernatant-containing wells was added 10 μL of 5× Anti-Analyte Acceptor beads (50 μg/mL of AlphaLISA HiBlock Buffer) and incubated for 30 min at RT while shaking on an orbital plate shaker. To each well was added 10 μL of 5× Biotinylated Antibody Anti-analyte (5 nM in AlphaLISA HiBlock Buffer) and incubated on an orbital plate shaker for 60 min at RT or overnight at 4° C. To each well was added 25 μL of 2× SA-Donor beads (80 μg/mL in AlphaLISA HiBlock Buffer) and incubated for 30-45 min at RT in the dark while shaking on an orbital plate shaker. The plate was then read on a Perkin Elmer Envision (λex=680 nm, λem=[…]). The percent effect of the AlphaLISA signal at each compound concentration was calculated based on 30 uM cGAMP positive controls and 0.3% DMSO negative controls. The plot of percent effect versus the log of compound concentration was fit with a 4-parameter concentration response equation to calculate EC50 values. The test compounds were tested at concentrations 30000, 10000, 3333, 1111, 370.4, 123.4, 41.2, 13.7, 4.6, and 1.5 nM with 0.3% residual DMSO.
Compounds of the disclosure were evaluated for IFN-β secretion in THP1 cell culture as described above. The following table tabulates the biological data for these compounds as percent activation relative to 2′3′-cGAMP at the 30 μM concentration.

A further assay addresses full-length HAQ STING (Homo sapiens (Human), UniProt Q86WV6, G230A/H232R/R293Q/R71H). As to the kind of experiment: 3H-cGAMP filtration binding assay (HAQ STING). As to conditions: competition with tritiated cGAMP, HAQ STING membrane.
Description: The ability of compounds to bind STING is quantified by the ability to compete with tritiated cGAMP ligand for human STING receptor membrane using a radioactive filter-binding assay. The binding assay employs STING receptor obtained from Hi-Five cell membranes overexpressing full-length HAQ STING prepared in-house and tritiated cGAMP ligand also purified in-house.
The ability of compounds to bind STING is quantified by their ability to compete with tritiated cGAMP ligand for human STING receptor membrane using a radioactive filter-binding assay. The binding assay employs STING receptor obtained from Trichoplusia ni cell membranes (Tni; Expression Systems, cat #94-002F, www.exrpressionsystems.com) overexpressing full-length HAQ STING prepared in-house and tritiated cGAMP ligand also purified in-house.
The basic HAQ STING filtration assay protocol is as follows:
Compound and membrane then preincubated for 60 min at RT to allow compound binding to equilibrate. Following equilibration, 8 nM of [^3H] c-GAMP ligand was prepared by diluting into assay buffer, and 50 uL of this working stock was then manually added to each well of the assay plate. […] The filter plates were then dried at 55° C. for 30 min using a pressurized VWR oven before 30 uL of Ultima GoldF scintillate was added to each well. Tritium levels for each reaction well were then measured using a PerkinElmer TopCount plate reader.
as §1

full-length WT STING, sequence (Q86WV6 other isoform, or with tags, fused parts or gaps H232R (already in the parent)): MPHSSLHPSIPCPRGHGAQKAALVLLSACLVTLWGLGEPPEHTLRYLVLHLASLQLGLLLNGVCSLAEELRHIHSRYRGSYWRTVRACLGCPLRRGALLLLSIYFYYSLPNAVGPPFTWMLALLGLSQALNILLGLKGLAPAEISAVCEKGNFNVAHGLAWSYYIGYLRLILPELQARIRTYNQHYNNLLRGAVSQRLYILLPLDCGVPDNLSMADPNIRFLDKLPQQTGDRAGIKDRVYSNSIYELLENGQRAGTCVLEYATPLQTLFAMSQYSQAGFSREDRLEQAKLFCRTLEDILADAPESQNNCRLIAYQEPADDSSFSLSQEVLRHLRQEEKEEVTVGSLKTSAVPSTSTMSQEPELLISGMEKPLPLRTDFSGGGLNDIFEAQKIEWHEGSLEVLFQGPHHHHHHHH
full-length HAQ STING, sequence (Q86WV6 other isoform, or with tags, fused parts or gaps, stated change not applied): as the sequence (Q86WV6 other isoform, or with tags, fused parts or gaps H232R (already in the parent)) above, with R71H, G230A, R293Q counted along it

`Nc1nc2c(ncn2[C@@H]2O[C@@H]3COP(O)(=S)O[C@@H]4[C@H](F)[C@@H](COP(O)(=S)O[C@@H]2[C@@H]3F)O[C@H]4n2cnc3c(=O)[nH]c(N)nc32)c(=O)[nH]1` (single isomer, unassigned) [Example 22] gave an EC50 at full-length WT STING of under 1 nM. Further, the “% Effect at 30 μM relative to 2′3′-cGAMP” value in the assay with THP1 cells was 129%.

In the case of `Nc1nc2c(ncn2[C@@H]2O[C@@H]3COP(O)(=S)O[C@@H]4[C@H](F)[C@@H](COP(O)(=S)O[C@@H]2[C@@H]3F)O[C@H]4n2cnc3c(=O)[nH]c(N)nc32)c(=O)[nH]1` (single isomer, unassigned) [Example 23], the EC50 at full-length WT STING turned out to be 4 nM. Besides, the “% Effect at 30 μM relative to 2′3′-cGAMP” value with THP1 cells is 135%.

For the compound `Nc1nc2c(ncn2[C@@H]2O[C@@H]3COP(O)(=S)O[C@@H]4[C@H](F)[C@@H](COP(O)(=S)O[C@@H]2[C@@H]3F)O[C@H]4n2cnc3c(=O)[nH]c(N)nc32)c(=O)[nH]1` (single isomer, unassigned) [Example 24], the EC50 at full-length WT STING is 1.2 nM. The “% Effect at 30 μM relative to 2′3′-cGAMP” value in the assay on THP1 cells turned out to be 84%.

As for `Nc1nc2c(ncn2[C@@H]2O[C@@H]3COP(=O)(S)O[C@@H]4[C@@H](F)[C@@H](COP(=O)(S)O[C@@H]2[C@H]3F)O[C@H]4n2cnc3c(=O)[nH]c(N)nc32)c(=O)[nH]1` (stereo partly drawn) [Example 30, 9,9′-[(1S,6R,8R,9S,14R,16R,17S,18S)-17,18-difluoro-3,11-dioxido-3,11-disulfanyl-2,4,7,10,12,15-hexaoxa-3,11-diphosphatricyclo[12.2.1.1^6,9]octadecane-8,16-diyl]bis(2-amino-1,9-dihydro-6H-purin-6-one)], the concentration giving a half-maximal response (EC50) on full-length WT STING stood at 7350 nM. Also, the activation at 30 µM in the assay on THP1 cells came out at 8%.

On full-length WT STING, `Nc1nc2c(nnn2[C@@H]2O[C@@H]3COP(=O)(S)O[C@@H]4[C@H](F)[C@@H](COP(=O)(S)O[C@@H]2[C@@H]3F)O[C@H]4n2nnc3c(=O)[nH]c(N)nc32)c(=O)[nH]1` (stereo partly drawn) [Example 31, 3,3′-[(1S,6R,8R,9S,14R,16R,17R,18R)-17,18-difluoro-3,11-dioxido-3,11-disulfanyl-2,4,7,10,12,15-hexaoxa-3,11-diphosphatricyclo[12.2.1.1^6,9]octadecane-8,16-diyl]bis(5-amino-3,6-dihydro-7H-[1,2,3]triazolo[4,5-d]pyrimidin-7-one)] gave an EC50 of under 1 nM. Also, the activation at 30 µM in the assay on THP1 cells is 57%.

On to `Nc1nc2c(ncn2[C@H]2O[C@@H]3COP(=O)(O)O[C@@H]4[C@H](N)[C@@H](COP(=O)(O)O[C@@H]2[C@@H]3O)O[C@H]4n2cnc3c(N)ncnc32)c(=O)[nH]1` [Example 34], for which the concentration giving a half-maximal response (EC50) on full-length HAQ STING and on full-length WT STING was under 1 nM in each case. The “% Effect at 30 μM relative to 2′3′-cGAMP” value in the assay on THP1 cells is given as 132%.
